PubChem BioAssay AID977614 (Broad Institute, 2014)
The source made the active and inactive calls.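 Rule for the calls: active = parasite count per well reduced by over 3 SD from the mean, with host cell number above 80% of untreated; inactive = the rest.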

Tested on: L. donovani amastigotes in THP-1 macrophages, DAPI imaging, 72 h
Assay: L. donovani intracellular amastigote growth inhibitors, imaging, THP-1 host macrophages, single concentration (AID 977614);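 note: signal is the parasite per host cell ratio from DAPI stained kinetoplasts and nuclei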

SMILES | AC50
COc1ccccc1NC(=O)N1C[C@H]2[C@@H](c3ccccc31)[C@H](CO)N2CC1CCOCC1 | > 10 µM (inactive)
COc1ccc(C(=O)N2C[C@@H]3[C@H](c4ccccc42)[C@@H](CO)N3C(=O)Cc2ccccn2)cc1 | > 10 µM (inactive)
C[C@H](CO)N1C[C@H](C)[C@@H](CN(C)C(=O)Oc2ccc3ccccc3c2)OCc2cn(nn2)CCCC1=O | > 10 µM (inactive)
O=C(NC[C@H]1N[C@H](CO)[C@@H]1c1ccc(-c2cncnc2)cc1)C1CCCCC1 | > 10 µM (inactive)
CN1C[C@@H]2[C@H](c3ccccc31)[C@@H](CO)N2S(=O)(=O)c1ccccc1 | > 10 µM (inactive)
C[C@@H]1CN([C@@H](C)CO)C(=O)CCCn2nncc2CO[C@@H]1CN(C)Cc1cccc(C(F)(F)F)c1 | > 10 µM (inactive)
CC(C)NC(=O)N1[C@H](CO)[C@H]2c3ccccc3N(C)C[C@H]21 | > 10 µM (inactive)
C[C@H]1CN([C@@H](C)CO)C(=O)CCCn2nncc2CO[C@@H]1CN(C)C(=O)Nc1ccccc1C(F)(F)F | > 10 µM (inactive)
C[C@@H]1CN([C@@H](C)CO)C(=O)CCCn2cc(nn2)CO[C@H]1CN(C)C(=O)Nc1cccc2ccccc12 | > 10 µM (inactive)
C[C@H]1CN([C@@H](C)CO)C(=O)CCCn2cc(nn2)CO[C@@H]1CN(C)C(=O)c1ccc(N2CCN(C)CC2)cc1 | > 10 µM (inactive)
C[C@@H]1CN([C@@H](C)CO)C(=O)CCCn2nncc2CO[C@H]1CN(C)Cc1ccccc1C(=O)O | > 10 µM (inactive)
C/C=C/c1ccc([C@@H]2[C@H](CO)N(C(C)=O)[C@H]2CNC(=O)c2ccccc2)cc1 | > 10 µM (inactive)
COc1ccccc1S(=O)(=O)N(C)C[C@H]1OCc2cn(nn2)CCCC(=O)N([C@H](C)CO)C[C@@H]1C | > 10 µM (inactive)
C[C@H](CO)N1C[C@H](C)[C@H](CN(C)C(=O)Nc2cccc3ccccc23)OCc2cn(nn2)CCCC1=O | > 10 µM (inactive)
C[C@@H]1CN([C@H](C)CO)C(=O)CCCn2nncc2CO[C@H]1CN(C)S(=O)(=O)c1cn(C)cn1 | > 10 µM (inactive)
C[C@H]1CN([C@@H](C)CO)C(=O)CCCn2nncc2CO[C@@H]1CN(C)Cc1ccccc1C(=O)O | > 10 µM (inactive)
C/C=C/c1ccc([C@H]2[C@@H](CO)N[C@@H]2CN(Cc2cccnc2)C(=O)C2CC2)cc1 | > 10 µM (inactive)
C[C@@H]1CN([C@H](C)CO)C(=O)CCCn2nncc2CO[C@@H]1CN(C)C(=O)Nc1ccccc1C(F)(F)F | > 10 µM (inactive)
C[C@@H]1CN([C@@H](C)CO)C(=O)CCCn2nncc2CO[C@@H]1CN(C)Cc1ccc(C(=O)Nc2ccccc2N)cc1 | > 10 µM (inactive)
CCC(=O)N1[C@H](CO)[C@H](c2ccccc2)[C@@H]1CN(CC)C(=O)c1cccc(F)c1 | > 10 µM (inactive)
C[C@H]1CN([C@@H](C)CO)C(=O)CCCn2nncc2CO[C@H]1CN(C)Cc1cccc2c1OCCCO2 | > 10 µM (inactive)
CCCC(=O)N1C[C@H]2[C@@H](c3ccccc31)[C@@H](CO)N2Cc1cocn1 | > 10 µM (inactive)
C[C@@H]1CN([C@@H](C)CO)C(=O)CCCn2cc(nn2)CO[C@@H]1CN(C)C(=O)Nc1cccc2ccccc12 | > 10 µM (inactive)
CN1C[C@H]2[C@@H](c3ccccc31)[C@H](CO)N2C(=O)C1CCOCC1 | > 10 µM (inactive)
COCC(=O)N(C[C@H]1N[C@H](CO)[C@@H]1c1ccc(-c2cncnc2)cc1)C(C)C | > 10 µM (inactive)
O=S(=O)(c1ccccc1)N1C[C@@H]2[C@H](c3ccccc31)[C@H](CO)N2Cc1ccccn1 | > 10 µM (inactive)
O=C(NC[C@@H]1[C@@H](c2ccccc2)[C@@H](CO)N1C(=O)Cc1ccncc1)C1CCC1 | > 10 µM (inactive)
O=S(=O)(NC[C@@H]1[C@H](c2ccccc2)[C@@H](CO)N1CC1CC1)c1ccccc1 | > 10 µM (inactive)
C[C@H](CO)N1C[C@H](C)[C@H](CN(C)S(=O)(=O)c2ccc(Oc3ccccc3)nc2)OCc2cnnn2CCCC1=O | > 10 µM (inactive)
O=C(CN1CCOCC1)N1[C@H](CO)[C@@H]2c3ccccc3NC[C@@H]21 | > 10 µM (inactive)
